Data from PubChem BioAssay AID2060901 (Molecular Pharmacology Branch, DTP, NCI, 2025).
Where “and” joins values, the source holds several entries; their conditions need not be identical. Equal values may be shown once.

System: 422866-222-R5-J1-PDC complex spheroids viability
Experiment: Anticancer human tumor 422866-222-R5-J1-PDC patient-derived pancreatic adenocarcinoma cell line growth inhibition [RAS]
Details: for viability, T/C: stronger effect = lower value
Outline: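 Multi-cell-type spheroids: tumor cells plus HUVEC endothelial cells and mesenchymal stem cells. RAS-pathway inhibitors were combined with targeted agents, each dosed in half-log steps down from clinical Cmax, or from 10 microM when Cmax was unknown.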

[1] = curve of first compound, second compound 0.000949 µM
[2] = curve of first compound, second compound 0.003 µM
[3] = curve of first compound, second compound 0.00949 µM
[4] = curve of first compound, second compound 0.03 µM
[5] = curve of first compound, second compound 0.0949 µM
[6] = curve of first compound, second compound 0.3 µM
[7] = second compound 0.000949 µM, first compound 0.0316 µM
[8] = second compound 0.000949 µM, first compound 0.1 µM
[9] = second compound 0.000949 µM, first compound 0.316 µM
[10] = second compound 0.000949 µM, first compound 1 µM
[11] = second compound 0.003 µM, first compound 0.0316 µM
[12] = second compound 0.003 µM, first compound 0.1 µM
[13] = second compound 0.003 µM, first compound 0.316 µM
[14] = second compound 0.003 µM, first compound 1 µM
[15] = second compound 0.00949 µM, first compound 0.0316 µM
[16] = second compound 0.00949 µM, first compound 0.1 µM
[17] = second compound 0.00949 µM, first compound 0.316 µM
[18] = second compound 0.00949 µM, first compound 1 µM
[19] = second compound 0.03 µM, first compound 0.0316 µM
[20] = second compound 0.03 µM, first compound 0.1 µM
[21] = second compound 0.03 µM, first compound 0.316 µM
[22] = second compound 0.03 µM, first compound 1 µM
[23] = second compound 0.0949 µM, first compound 0.0316 µM
[24] = second compound 0.0949 µM, first compound 0.1 µM
[25] = second compound 0.0949 µM, first compound 0.316 µM
[26] = second compound 0.0949 µM, first compound 1 µM
[27] = second compound 0.3 µM, first compound 0.0316 µM
[28] = second compound 0.3 µM, first compound 0.1 µM
[29] = second compound 0.3 µM, first compound 0.316 µM
[30] = second compound 0.3 µM, first compound 1 µM
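Note: spheroids exposed to compounds for 7 days.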
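Throughout, for viability, T/C: 100% = DMSO vehicle control viability.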

Compound: C=CC(=O)Nc1cc(Nc2nccc(-c3cn(C)c4ccccc34)n2)c(OC)cc1N(C)CCN(C)C + CCn1c(-c2cc(N3CCN(C)CC3)cnc2C(C)OC)c2c3cc(ccc31)-c1csc(n1)CC(NC(=O)C1CC1C)C(=O)N1CCCC(N1)C(=O)OCC(C)(C)C2
- IC50 [1]: < 3.16 nM
- IC50 [2]: < 3.16 nM
- IC50 [3]: < 3.16 nM
- IC50 [4]: < 3.16 nM
- IC50 [5]: < 3.16 nM
- IC50 [6]: < 3.16 nM
- viability, T/C (second compound 0.000949 µM, first compound 0.00316 µM): 32.2%
- viability, T/C (second compound 0.000949 µM, first compound 0.01 µM): 25.2%
- viability, T/C [7]: 26.4%
- viability, T/C [8]: 21.6%
- viability, T/C [9]: 23.1%
- viability, T/C [10]: 24.7%
- viability, T/C (second compound 0.003 µM, first compound 0.00316 µM): 26.1%
- viability, T/C (second compound 0.003 µM, first compound 0.01 µM): 20.3%
- viability, T/C [11]: 20.2%
- viability, T/C [12]: 17.2%
- viability, T/C [13]: 16.4%
- viability, T/C [14]: 18.9%
- viability, T/C (second compound 0.00949 µM, first compound 0.00316 µM): 20.4%
- viability, T/C (second compound 0.00949 µM, first compound 0.01 µM): 17.9%
- viability, T/C [15]: 17%
- viability, T/C [16]: 14.1%
- viability, T/C [17]: 14.5%
- viability, T/C [18]: 17.1%
- viability, T/C (second compound 0.03 µM, first compound 0.00316 µM): 19.9%
- viability, T/C (second compound 0.03 µM, first compound 0.01 µM): 18.6%
- viability, T/C [19]: 16.8%
- viability, T/C [20]: 14.4%
- viability, T/C [21]: 15.1%
- viability, T/C [22]: 15.6%
- viability, T/C (second compound 0.0949 µM, first compound 0.00316 µM): 20%
- viability, T/C (second compound 0.0949 µM, first compound 0.01 µM): 17.4%
- viability, T/C [23]: 19.2%
- viability, T/C [24]: 16.9%
- viability, T/C [25]: 16.1%
- viability, T/C [26]: 18.7%
- viability, T/C (second compound 0.3 µM, first compound 0.00316 µM): 19.3%
- viability, T/C (second compound 0.3 µM, first compound 0.01 µM): 20.9%
- viability, T/C [27]: 19.1%
- viability, T/C [28]: 16.5%
- viability, T/C [29]: 16.5%
- viability, T/C [30]: 20.8%

Compound: C=CC(=O)Nc1cc(Nc2nccc(-c3cn(C)c4ccccc34)n2)c(OC)cc1N(C)CCN(C)C
- viability, T/C (compound 0.00316 µM): 106% [middle of 4 runs]
- viability, T/C (compound 0.01 µM): 74.7% and 114% (2×) and 81.9%
- viability, T/C (compound 0.0316 µM): 87.1% [middle of 4 runs]
- viability, T/C (compound 0.316 µM): 77.7% [middle of 4 runs]
- IC50 (curve of compound): > 1000 nM

Compound: O=C(c1ccc(F)c(F)c1Nc1ccc(I)cc1F)N1CC(O)([C@@H]2CCCCN2)C1
- viability, T/C (compound 0.00316 µM): 98.2% [middle of 4 runs]
- viability, T/C (compound 0.01 µM): 74.8% [middle of 4 runs]
- viability, T/C (compound 0.0316 µM): 60.7% [middle of 4 runs]
- viability, T/C (compound 0.1 µM): 57% [middle of 4 runs]
- viability, T/C (compound 0.316 µM): 45.2% [middle of 4 runs]
- viability, T/C (compound 1 µM): 39.2% [middle of 4 runs]

Compound: Nc1ccn(C2OC(CO)C(O)C2(F)F)c(=O)n1 (configuration not stated) + C#Cc1c(F)ccc2cc(O)cc(-c3ncc4c(N5CC6CCC(C5)N6)nc(OCC56CCCN5CC(F)C6)nc4c3F)c12
- IC50 (curve of first compound, second compound 0.0316 µM): 113 nM
- IC50 (curve of first compound, second compound 0.1 µM): 29.2 nM
- IC50 (curve of first compound, second compound 0.316 µM): 15.9 nM
- IC50 (curve of first compound, second compound 1 µM): < 3.16 nM
- IC50 (curve of first compound, second compound 3.16 µM): < 3.16 nM
- IC50 (curve of first compound, second compound 10 µM): < 3.16 nM
- viability, T/C (second compound 0.0316 µM, first compound 0.00316 µM): 90.8%
- viability, T/C (second compound 0.0316 µM, first compound 0.01 µM): 84.9%
- viability, T/C (second compound 0.0316 µM, first compound 0.0316 µM): 65.7%
- viability, T/C (second compound 0.0316 µM, first compound 0.1 µM): 51.1%
- viability, T/C (second compound 0.0316 µM, first compound 0.316 µM): 42.1%
- viability, T/C (second compound 0.0316 µM, first compound 1 µM): 34.1%
- viability, T/C (second compound 0.1 µM, first compound 0.00316 µM): 108%
- viability, T/C (second compound 0.1 µM, first compound 0.01 µM): 65.6%
- viability, T/C (second compound 0.1 µM, first compound 0.0316 µM): 52.4%
- viability, T/C (second compound 0.1 µM, first compound 0.1 µM): 37.6%
- viability, T/C (second compound 0.1 µM, first compound 0.316 µM): 39.6%
- viability, T/C (second compound 0.1 µM, first compound 1 µM): 38.5%
- viability, T/C (second compound 0.316 µM, first compound 0.00316 µM): 63.9%
- viability, T/C (second compound 0.316 µM, first compound 0.01 µM): 49.8%
- viability, T/C (second compound 0.316 µM, first compound 0.0316 µM): 48.8%
- viability, T/C (second compound 0.316 µM, first compound 0.1 µM): 45.6%
- viability, T/C (second compound 0.316 µM, first compound 0.316 µM): 38.1%
- viability, T/C (second compound 0.316 µM, first compound 1 µM): 41.9%
- viability, T/C (second compound 1 µM, first compound 0.00316 µM): 41.2%
- viability, T/C (second compound 1 µM, first compound 0.01 µM): 41.3%
- viability, T/C (second compound 1 µM, first compound 0.0316 µM): 32.4%
- viability, T/C (second compound 1 µM, first compound 0.1 µM): 35.9%
- viability, T/C (second compound 1 µM, first compound 0.316 µM): 33.3%
- viability, T/C (second compound 1 µM, first compound 1 µM): 25.5%
- viability, T/C (second compound 3.16 µM, first compound 0.00316 µM): 25.8%
- viability, T/C (second compound 3.16 µM, first compound 0.01 µM): 29.7%
- viability, T/C (second compound 3.16 µM, first compound 0.0316 µM): 24.5%
- viability, T/C (second compound 3.16 µM, first compound 0.1 µM): 27.7%
- viability, T/C (second compound 3.16 µM, first compound 0.316 µM): 23.4%
- viability, T/C (second compound 3.16 µM, first compound 1 µM): 23%
- viability, T/C (second compound 10 µM, first compound 0.00316 µM): 24.8%
- viability, T/C (second compound 10 µM, first compound 0.01 µM): 26.2%
- viability, T/C (second compound 10 µM, first compound 0.0316 µM): 23.3%
- viability, T/C (second compound 10 µM, first compound 0.1 µM): 19.8%
- viability, T/C (second compound 10 µM, first compound 0.316 µM): 21.6%
- viability, T/C (second compound 10 µM, first compound 1 µM): 17.8%

Compound: CC(Nc1ccc2c(c1)OCCn1cc(N3C(=O)OCC3C(F)F)nc1-2)C(N)=O (configuration not stated) + CCn1c(-c2cccnc2C(C)OC)c2c3cc(ccc31)N1CCOC(CC(NC(=O)C(C(C)C)N(C)C(=O)C3(F)CCN(C(=O)C#CC(C)(C)N(C)C)CC3)C(=O)N3CCCC(N3)C(=O)OCC(C)(C)C2)C1
- IC50 [1]: < 31.6 nM
- IC50 [2]: < 31.6 nM
- IC50 [3]: < 31.6 nM
- IC50 [4]: < 31.6 nM
- IC50 [5]: < 31.6 nM
- IC50 [6]: < 31.6 nM
- viability, T/C [7]: 18.2%
- viability, T/C [8]: 15.9%
- viability, T/C [9]: 10.3%
- viability, T/C [10]: 9.14%
- viability, T/C (second compound 0.000949 µM, first compound 3.16 µM): 26.9%
- viability, T/C (second compound 0.000949 µM, first compound 10 µM): 6.64%
- viability, T/C [11]: 14.5%
- viability, T/C [12]: 11.7%
- viability, T/C [13]: 9.43%
- viability, T/C [14]: 9.79%
- viability, T/C (second compound 0.003 µM, first compound 3.16 µM): 19.8%
- viability, T/C (second compound 0.003 µM, first compound 10 µM): 5.92%
- viability, T/C [15]: 14.6%
- viability, T/C [16]: 11.4%
- viability, T/C [17]: 9.65%
- viability, T/C [18]: 6.24%
- viability, T/C (second compound 0.00949 µM, first compound 3.16 µM): 17.5%
- viability, T/C (second compound 0.00949 µM, first compound 10 µM): 5.13%
- viability, T/C [19]: 12.7%
- viability, T/C [20]: 10.8%
- viability, T/C [21]: 8.08%
- viability, T/C [22]: 5.84%
- viability, T/C (second compound 0.03 µM, first compound 3.16 µM): 16.7%
- viability, T/C (second compound 0.03 µM, first compound 10 µM): 4.66%
- viability, T/C [23]: 13.7%
- viability, T/C [24]: 9.18%
- viability, T/C [25]: 8.36%
- viability, T/C [26]: 5.71%
- viability, T/C (second compound 0.0949 µM, first compound 3.16 µM): 17.2%
- viability, T/C (second compound 0.0949 µM, first compound 10 µM): 3.5%
- viability, T/C [27]: 10.9%
- viability, T/C [28]: 8.1%
- viability, T/C [29]: 5.84%
- viability, T/C [30]: 3.47%
- viability, T/C (second compound 0.3 µM, first compound 3.16 µM): 10%
- viability, T/C (second compound 0.3 µM, first compound 10 µM): 2.74%
